Results reported in the supplement of paper PMC7695840.
Where a name gives a salt, the structure may show the parent alone.

Assays:
[1] = test system: Staphylococcus aureus MW2 delta-mecA (mecA-); assay: IC50 (growth, competition assay); details: cefoxitin: subinhibitory
Outline: (§1)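 Two fluorescent S. aureus MW2 strains, one carrying and one lacking the resistance gene, were pre-induced, mixed 1:1 and grown unshaken in LB in 1536-well plates for 20 h at 37 °C and 90% humidity with a subinhibitory drug dose set each day. Compounds were tested on five- or nine-point 2-fold gradients in two dye-swapped replicates. DsRed (540/590) and GFP (485/520) signals were scaled per plate between the medians of single-strain controls, and No Treatment was then set to 0.5. For each strain, IC50 was taken as the dose that halved the No Treatment signal, or else the maximal signal.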

[2] = test system: Staphylococcus aureus MW2 (mecA+); assay: IC50 (growth, competition assay); details: cefoxitin: subinhibitory
Outline: as §1

| Structure (SMILES) | IC50 ([1]; fluorescent label: DsRed) [µM] | IC50 ([1]; fluorescent label: GFP) [µM] | IC50 ([2]; fluorescent label: DsRed) [µM] | IC50 ([2]; fluorescent label: GFP) [µM] |
| --- | --- | --- | --- | --- |
| C/C(=C\C(=O)OCCCCCCCCC(=O)O)C[C@@H]1OC[C@H](C[C@@H]2O[C@H]2[C@@H](C)[C@H](C)O)[C@@H](O)[C@H]1O [BACTROBAN] | < 9.85 | < 9.85 | < 9.85 | < 9.85 |
| Cc1ccc(S(=O)(=O)C=CC#N)cc1 [BAY 11-7082 (BAY 11-7821)] | < 9.85 | < 9.85 | < 9.85 | 9.88 |
| Cc1cc(-n2c(=O)[nH]c(=O)n(C)c2=O)ccc1Oc1ccc(SC(F)(F)F)cc1 [BAYCOX] | 59.8 | 32 | 70.8 | 113 |
| CCN1CCN(c2cc3c(cc2F)c(=O)c(C(=O)O)cn3C2CC2)CC1 [BAYTRIL] | < 9.85 | < 9.85 | < 9.85 | < 9.85 |
| O=c1[nH]nc(Sc2ncc([N+](=O)[O-])s2)n1-c1ccc2c(c1)OCCO2 [BI 78D3] | < 9.85 | < 9.85 | < 9.85 | 11.9 |
| CC[C@@H]1C(=O)N(C)c2cnc(Nc3ccc(C(=O)NC4CCN(C)CC4)cc3OC)nc2N1C1CCCC1 [BI 2536] | 21.6 | 30.1 | 106 | 112 |
| CC[C@H]1OC(=O)[C@H](C)[C@@H](O[C@H]2C[C@@](C)(OC)[C@@H](O)[C@H](C)O2)[C@H](C)[C@@H](O[C@@H]2O[C@H](C)C[C@H](N(C)C)[C@H]2O)[C@](C)(OC)C[C@@H](C)C(=O)[C@H](C)[C@@H](O)[C@]1(C)O [BIAXIN] | < 9.85 | < 9.85 | < 9.85 | < 9.85 |
| C/C(=C\C(=O)Nc1ccccc1C(=O)O)c1ccc2ccccc2c1 [BIBR1532] | < 9.85 | < 9.85 | < 9.85 | 12.3 |
| O=Nc1c(-c2c(O)[nH]c3cc(Br)ccc23)[nH]c2ccccc12 [BIO] | < 9.85 | < 9.85 | < 9.85 | < 9.85 |
| CC(C)(c1ccc(O)cc1)c1ccc(O)cc1 [BISPHENOL A] | < 9.85 | < 9.85 | 42.4 | 64.7 |
| CC[C@@H](C(=O)[C@@H](C)[C@@H](O)[C@H](C)CCc1ccc(C)c(O)c1C(=O)O)[C@H]1O[C@](CC)([C@H]2CC[C@](O)(CC)[C@H](C)O2)C[C@@H]1C [BOVOTEC] | < 9.85 | < 9.85 | < 9.85 | < 9.85 |
| C=C(NC(=O)C(=C)NC(=O)c1csc(C2=N[C@@H]3c4csc(n4)[C@H]4NC(=O)c5csc(n5)[C@H]([C@](C)(O)[C@@H](C)O)NC(=O)[C@H]5CSC(=N5)/C(=C/C)NC(=O)[C@H]([C@@H](C)O)NC(=O)c5csc(n5)[C@]3(CC2)NC(=O)[C@H](C)NC(=O)C(=C)NC(=O)[C@H](C)NC(=O)[C@H]([C@@H](C)CC)N[C@@H]2C=Cc3c([C@H](C)O)cc(nc3[C@H]2O)C(=O)O[C@@H]4C)n1)C(N)=O [BRYAMYCIN] | < 9.85 | < 9.85 | < 9.85 | < 9.85 |
| N#Cc1cc([N+](=O)[O-])c2sc(C(N)=O)[n+]([O-])c2c1 [BTO-1] | < 9.85 | < 9.85 | 19.5 | 18.9 |
| CC[C@H](C)[C@H](N)C1=N[C@H](C(=O)N[C@@H](CC(C)C)C(=O)N[C@H](CCC(=O)[O-])C(=O)N[C@H](C(=O)N[C@H]2CCCCNC(=O)[C@H](CC(N)=O)NC(=O)[C@@H](CC(=O)[O-])NC(=O)[C@H](Cc3cnc[nH]3)NC(=O)[C@@H](Cc3ccccc3)NC(=O)[C@H]([C@@H](C)CC)NC(=O)[C@@H](CCCN)NC2=O)[C@@H](C)CC)CS1.[Zn+2] [Bacitracin zinc] | 4.32 | 4.06 | 35.2 | 49.1 |
| Cc1ccc(S(=O)(=O)C=CC#N)cc1 [Bay 11-7082] | < 9.85 | < 9.85 | < 9.85 | < 9.85 |
| CC(C)(C)c1ccc(S(=O)(=O)/C=C/C#N)cc1 [Bay 11-7085] | < 9.85 | < 9.85 | < 9.85 | < 9.85 |
| Cc1c(-c2ccc(O)cc2)n(Cc2ccc(OCCN3CCCCCC3)cc2)c2ccc(O)cc12 [Bazedoxifene HCl] | 13.5 | 28.3 | 56.8 | 56.6 |
| C[C@@H](O)[C@H]1C(=O)N2C(C(=O)[O-])=C(SC3Cn4cnc[n+]4C3)[C@H](C)[C@H]12 (stereo partly specified) [Biapenem] | 31.4 | 24.7 | 104 | 112 |
| C=CCc1ccccc1OCC(O)CNC1(C)CCC(C(C)(C)NC(=O)CBr)CC1 (stereo unspecified) [Bromoacetyl alprenolol menthane] | < 9.85 | < 9.85 | 14.8 | 14.2 |
| O=C(/C=C/c1ccc(O)c(O)c1)c1ccc(O)cc1O [Butein] | 21.3 | 30.4 | 92.3 | 98.5 |
| Oc1c(Cl)cc(Cl)c2cccnc12 [CAPITROL] | < 9.85 | < 9.85 | 17.9 | 30 |
| O=C1C2CC=CCC2C(=O)N1SC(Cl)(Cl)Cl (stereo unspecified) [CAPTAN] | < 9.85 | < 9.85 | 15.7 | 18 |
| O=c1[nH]cc(F)c(=O)[nH]1 [CARAC] | < 9.85 | < 9.85 | < 9.85 | < 9.85 |
| CC1(C)S[C@@H]2[C@H](NC(=O)C(C(=O)O)c3ccccc3)C(=O)N2[C@H]1C(=O)O (stereo partly specified) [CARBECIN] | < 9.85 | < 9.85 | 23.7 | 36.6 |
| CC(C)c1cc2c(c(O)c1O)[C@@]1(C(=O)O)CCCC(C)(C)[C@@H]1CC2 [CARNOSIC ACID] | < 9.85 | < 9.85 | 27.2 | 38.8 |
| O=C(O)c1ccc2cc(-c3ccc(O)c(C45CC6CC(CC(C6)C4)C5)c3)ccc2c1 [CD 437] | < 9.85 | < 9.85 | < 9.85 | < 9.85 |
| N[C@@H](C(=O)N[C@@H]1C(=O)N2C(C(=O)O)=C(Cl)CS[C@H]12)c1ccccc1 [CECLOR] | < 9.85 | < 9.85 | 87.9 | 87.8 |
| Nc1nc(/C(=C/CC(=O)O)C(=O)N[C@@H]2C(=O)N3C(C(=O)O)=CCS[C@H]23)cs1 [CEDAX] | < 9.85 | < 9.85 | 18.2 | 18.9 |
| CC(=O)OCC1=C(C(=O)O)N2C(=O)[C@@H](NC(=O)CSc3ccncc3)[C@H]2SC1 [CEFADYL] | < 9.85 | < 9.85 | < 9.85 | < 9.85 |
